Laboratory results taken from patent US20240358702A1, “CYCLIC UREA KRAS INHIBITORS” (INCYTE CORPORATION, priority 2023, published 2024).

Tests used:
[1] = molecular target: KRAS G12V (Homo sapiens, UniProt P01116, G12V); experiment: GDP-GTP exchange assay (bodipy-GDP/GppNHp, SOS1), KRAS G12V; format: biochemical; details: KRAS_G12V exchange assay IC50, value for the most potent isomer quoted; for IC50: read-out: G12V_exchange
Protocol: (§1) The inhibitor potency of the exemplified compounds was determined in a fluorescence based guanine nucleotide exchange assay, which measures the exchange of bodipy-GDP (fluorescently labeled GDP) for GppNHp (Non-hydrolyzable GTP analog) to generate the active state of KRAS in the presence of SOS1 (guanine nucleotide exchange factor). Inhibitors were serially diluted in DMSO and a volume of 0.1 μL was transferred to the wells of a black low volume 384-well plate. 5 μL/well volume of bodipy-loaded KRAS G12D diluted to […] in assay buffer (25 mM Hepes pH 7.5, 50 mM NaCl, 10 mM mgCl2 and 0.01% Brij-35) was added to the plate and pre-incubated with inhibitor for 4 h at ambient temperature. Appropriate controls (enzyme with no inhibitor or with a G12D inhibitor) were included on the plate. The exchange was initiated by the addition of a 5 μL/well volume containing 1 mM GppNHp and 300 nM SOS1 in assay buffer. The 10 μL/well reaction concentration of the bodipy-loaded KRAS G12D, GppNHp, and SOS1 were 2.5 nM, 500 uM, and 150 nM, respectively. The reaction plates were incubated at ambient temperature for 2 h, a time estimated for complete GDP-GTP exchange in the absence of inhibitor. For the KRAS G12V mutant, similar guanine nucleotide exchange assays were used with 2.5 nM as final concentration for the bodipy loaded KRAS proteins and 3 h incubation after adding GppNHp-SOS1 mixture. A cyclic peptide described to selectively bind G12D mutant (Sakamoto et al., BBRC 484.3 (2017), 605-611) or internal compounds with confirmed binding were used as positive controls in the assay plates. Fluorescence intensities were measured on a PheraStar plate reader instrument (BMG Labtech) with excitation at 485 nm and emission at 520 nm.
(§2) Either GraphPad prism or Genedata Screener SmartFit was used to analyze the data. The IC50 values were derived by fitting the data to a four parameter logistic equation producing a sigmoidal dose-response curve with a variable Hill coefficient.
(§3) The symbol “t” indicates IC50≤100 nM, “††” indicates IC50>100 nM but ≤1 μM; and “†††” indicates IC50 is >1 μM but ≤5 μM, “††††” indicates IC50 is >5 μM but ≤10 μM. “NA” indicates IC50 not available.

[2] = molecular target: KRAS G12D (Homo sapiens, UniProt P01116, G12D); experiment: GDP-GTP exchange assay (bodipy-GDP/GppNHp, SOS1), KRAS G12D; format: biochemical; details: KRAS_G12D exchange assay IC50, 4 h pre-incubation, value for the most potent isomer quoted
Protocol: as §1, §2, §3

Chain of KRAS G12V (P01116 1-188 isoform P01116-2 G12V): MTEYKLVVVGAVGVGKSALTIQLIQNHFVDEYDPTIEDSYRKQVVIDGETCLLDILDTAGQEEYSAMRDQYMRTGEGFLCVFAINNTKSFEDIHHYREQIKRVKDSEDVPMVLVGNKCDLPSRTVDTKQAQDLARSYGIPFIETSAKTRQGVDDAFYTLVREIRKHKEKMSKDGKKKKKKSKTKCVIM
Chain of KRAS G12D (P01116 1-188 isoform P01116-2 G12D): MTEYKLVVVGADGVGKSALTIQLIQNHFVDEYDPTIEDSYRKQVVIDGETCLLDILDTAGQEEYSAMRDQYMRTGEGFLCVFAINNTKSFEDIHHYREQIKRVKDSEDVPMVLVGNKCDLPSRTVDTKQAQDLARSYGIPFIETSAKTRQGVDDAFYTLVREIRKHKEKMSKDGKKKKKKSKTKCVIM

| SMILES | G12V_exchange [1] | G12D_exchange [2] | IC50 [1] | IC50 ([2]; read-out: G12D_exchange) |
| --- | --- | --- | --- | --- |
| Cc1nc2c(F)c(-c3cccc(Cl)c3Cl)c(CCC#N)cc2c2c1cc([C@@H](C)N1CCCN(c3ccnc(F)c3)C1=O)n2[C@H]1[C@H]2CN[C@@H]1C2 [Example 27, 3-(1-((1R,4R,5S)-2-azabicyclo[2.1.1]hexan-5-yl)-7-(2,3-dichlorophenyl)-6-fluoro-2-((R)-1-(3-(2-fluoropyridin-4-yl)-2-oxotetrahydropyrimidin-1(2H)-yl)ethyl)-4-methyl-1H-pyrrolo[3,2-c]quinolin-8-yl)propanenitrile] | † | † |  |  |
| CC(=O)NCc1cccc(N2CCCN([C@H](C)c3cc4c(C)nc5c(F)c(-c6cccc(Cl)c6Cl)c(CCC#N)cc5c4n3[C@H]3[C@H]4CN[C@@H]3C4)C2=O)c1 [Example 28, N-(3-(3-((1R)-1-(1-((1R,4R,5S)-2-azabicyclo[2.1.1]hexan-5-yl)-8-(2-cyanoethyl)-7-(2,3-dichlorophenyl)-6-fluoro-4-methyl-1H-pyrrolo[3,2-c]quinolin-2-yl)ethyl)-2-oxotetrahydropyrimidin-1(2H)-yl)benzyl)acetamide] | † | † |  |  |
| Cc1nc2c(F)c(-c3cccc(Cl)c3Cl)c(CCC#N)cc2c2c1cc([C@@H](C)N1CCCN(c3ccnc(C#N)c3)C1=O)n2[C@H]1[C@H]2CN[C@@H]1C2 [Example 29, 4-(3-((1R)-1-(1-((1R,4R,5S)-2-azabicyclo[2.1.1]hexan-5-yl)-8-(2-cyanoethyl)-7-(2,3-dichlorophenyl)-6-fluoro-4-methyl-1H-pyrrolo[3,2-c]quinolin-2-yl)ethyl)-2-oxotetrahydropyrimidin-1(2H)-yl)picolinonitrile] |  | † | 0.1 to 1 µM |  |
| Cc1nc2c(F)c(-c3cccc(Cl)c3Cl)c(CCC#N)cc2c2c1cc([C@@H](C)N1CCCN(c3ccnc(N(C)C)c3)C1=O)n2[C@H]1[C@H]2CN[C@@H]1C2 [Example 30, 3-(1-((1R,4R,5S)-2-azabicyclo[2.1.1]hexan-5-yl)-7-(2,3-dichlorophenyl)-2-((R)-1-(3-(2-(dimethylamino)pyridin-4-yl)-2-oxotetrahydropyrimidin-1(2H)-yl)ethyl)-6-fluoro-4-methyl-1H-pyrrolo[3,2-c]quinolin-8-yl)propanenitrile] |  | † | 0.1 to 1 µM |  |
| Cc1nc2c(F)c(-c3cccc(Cl)c3Cl)c(CCC#N)cc2c2c1cc([C@@H](C)N1CCCN(c3ccnc(C(F)F)c3)C1=O)n2[C@H]1[C@H]2CN[C@@H]1C2 [Example 31, 3-(1-((1R,4R,5S)-2-azabicyclo[2.1.1]hexan-5-yl)-7-(2,3-dichlorophenyl)-2-((R)-1-(3-(2-(difluoromethyl)pyridin-4-yl)-2-oxotetrahydropyrimidin-1(2H)-yl)ethyl)-6-fluoro-4-methyl-1H-pyrrolo[3,2-c]quinolin-8-yl)propanenitrile] |  | † | 0.1 to 1 µM |  |
| Cc1nc2c(F)c(-c3cccc(Cl)c3Cl)c(CCC#N)cc2c2c1cc([C@@H](C)N1CCCN(c3ccnc(N)c3)C1=O)n2[C@H]1[C@H]2CN[C@@H]1C2 [Example 32, 3-(2-((R)-1-(3-(2-aminopyridin-4-yl)-2-oxotetrahydropyrimidin-1(2H)-yl)ethyl)-1-((1R,4R,5S)-2-azabicyclo[2.1.1]hexan-5-yl)-7-(2,3-dichlorophenyl)-6-fluoro-4-methyl-1H-pyrrolo[3,2-c]quinolin-8-yl)propanenitrile] | † | † |  |  |
| Cc1nc2c(F)c(-c3cccc(Cl)c3Cl)c(CCC#N)cc2c2c1cc([C@@H](C)N1CCCN(c3ccncn3)C1=O)n2[C@H]1[C@H]2CN[C@@H]1C2 [Example 33, 3-(1-((1R,4R,5S)-2-azabicyclo[2.1.1]hexan-5-yl)-7-(2,3-dichlorophenyl)-6-fluoro-4-methyl-2-((R)-1-(2-oxo-3-(pyrimidin-4-yl)tetrahydropyrimidin-1(2H)-yl)ethyl)-1H-pyrrolo[3,2-c]quinolin-8-yl)propanenitrile] |  | † | 0.1 to 1 µM |  |
| Cc1nc2c(F)c(-c3cccc(Cl)c3Cl)c(CCC#N)cc2c2c1cc([C@@H](C)N1CCCN(c3cncnc3)C1=O)n2[C@H]1[C@H]2CN[C@@H]1C2 [Example 34, 3-(1-((1R,4R,5S)-2-azabicyclo[2.1.1]hexan-5-yl)-7-(2,3-dichlorophenyl)-6-fluoro-4-methyl-2-((R)-1-(2-oxo-3-(pyrimidin-5-yl)tetrahydropyrimidin-1(2H)-yl)ethyl)-1H-pyrrolo[3,2-c]quinolin-8-yl)propanenitrile] | † | † |  |  |
| Cc1nc2c(F)c(-c3cccc(Cl)c3Cl)c(CCC#N)cc2c2c1cc([C@@H](C)N1CCCN(c3ccn(C)c(=O)c3)C1=O)n2[C@H]1[C@H]2CN[C@@H]1C2 [Example 36, 3-(1-((1R,4R,5S)-2-azabicyclo[2.1.1]hexan-5-yl)-7-(2,3-dichlorophenyl)-6-fluoro-4-methyl-2-((R)-1-(3-(1-methyl-2-oxo-1,2-dihydropyridin-4-yl)-2-oxotetrahydropyrimidin-1(2H)-yl)ethyl)-1H-pyrrolo[3,2-c]quinolin-8-yl)propanenitrile] |  |  | 1 to 5 µM | 0.1 to 1 µM |
| Cc1nc2c(F)c(-c3cccc(Cl)c3Cl)c(CCC#N)cc2c2c1cc([C@@H](C)N1CCCN(c3cc[nH]c(=O)c3)C1=O)n2[C@H]1[C@H]2CN[C@@H]1C2 [Example 37, 3-(1-((1R,4R,5S)-2-azabicyclo[2.1.1]hexan-5-yl)-7-(2,3-dichlorophenyl)-6-fluoro-4-methyl-2-((R)-1-(2-oxo-3-(2-oxo-1,2-dihydropyridin-4-yl)tetrahydropyrimidin-1(2H)-yl)ethyl)-1H-pyrrolo[3,2-c]quinolin-8-yl)propanenitrile] |  | † | 0.1 to 1 µM |  |
| Cc1nc2c(F)c(-c3cccc(Cl)c3Cl)c(CCC#N)cc2c2c1cc([C@@H](C)N1CCCN(c3ccnc4sccc34)C1=O)n2[C@H]1[C@H]2CN[C@@H]1C2 [Example 38, 3-(1-((1R,4R,5S)-2-azabicyclo[2.1.1]hexan-5-yl)-7-(2,3-dichlorophenyl)-6-fluoro-4-methyl-2-((R)-1-(2-oxo-3-(thieno[2,3-b]pyridin-4-yl)tetrahydropyrimidin-1(2H)-yl)ethyl)-1H-pyrrolo[3,2-c]quinolin-8-yl)propanenitrile] | † | † |  |  |
| CC(O)c1nc2c(F)c(-c3cccc(Cl)c3Cl)c(CCC#N)cc2c2c1cc([C@@H](C)N1CCCN(c3ccncc3)C1=O)n2[C@H]1[C@H]2CN[C@@H]1C2 (stereo partly drawn) [Example 39, 3-(1-((1R,4R,5S)-2-azabicyclo[2.1.1]hexan-5-yl)-7-(2,3-dichlorophenyl)-6-fluoro-4-(1-hydroxyethyl)-2-((R)-1-(2-oxo-3-(pyridin-4-yl)tetrahydropyrimidin-1(2H)-yl)ethyl)-1H-pyrrolo[3,2-c]quinolin-8-yl)propanenitrile] | † | † |  |  |
| Cc1nc2c(F)c(-c3cccc(Cl)c3Cl)c(CCC#N)cc2c2c1cc([C@@H](C)N1CCCN(c3ccc(F)cn3)C1=O)n2[C@H]1[C@H]2CN[C@@H]1C2 [Example 40, 3-(1-((1R,4R,5S)-2-azabicyclo[2.1.1]hexan-5-yl)-7-(2,3-dichlorophenyl)-6-fluoro-2-((R)-1-(3-(5-fluoropyridin-2-yl)-2-oxotetrahydropyrimidin-1(2H)-yl)ethyl)-4-methyl-1H-pyrrolo[3,2-c]quinolin-8-yl)propanenitrile] | † | † |  |  |
| Cc1nc2c(F)c(-c3cccc(Cl)c3Cl)c(CCC#N)cc2c2c1cc([C@@H](C)N1CCCN(c3cccc(F)n3)C1=O)n2[C@H]1[C@H]2CN[C@@H]1C2 [Example 41, 3-(1-((1R,4R,5S)-2-azabicyclo[2.1.1]hexan-5-yl)-7-(2,3-dichlorophenyl)-6-fluoro-2-((R)-1-(3-(6-fluoropyridin-2-yl)-2-oxotetrahydropyrimidin-1(2H)-yl)ethyl)-4-methyl-1H-pyrrolo[3,2-c]quinolin-8-yl)propanenitrile] |  | † | 0.1 to 1 µM |  |
